Experimental data from US4235666A, “1,2,3,4,4a,9a-Hexahydro-9,10-anthracene-dione, its preparation and its application to the delignification of lignocellulosic materials” (Produits Chimiques Ugine Kuhlmann, priority 1978, dated 1980).
“Also recorded” adds a separate entry of the source. Read-outs that look alike come from different tables or passages of the source.

What was measured:
Parameters in all cases: species or system moorland maritime pine
[1] = Caustic soda cooking (delignification) with adjuvant; conditions: for Kappa index: NFT 12018
Description: Shavings of moorland maritime pine are subjected to heating in an autoclave with a caustic soda liquor. The cooking conditions are as follows:
Amount of caustic soda: 22% by weight with respect to the dry vegetable material.
Ratio of liquor/vegetable material: 4
Temperature of cooking: 170° C.
Time in which the cooking temperature
Time of cooking: 90 minutes
Amount of adjuvant: 0-0.1%-0.5%-1% by weight with respect to the dry vegetable material
After cooking, the pulps obtained are washed, disintegrated on a 3 mm grid (Vewerk grader or sorter).
The crude yield and the yield of sorted pulp are determined on the pulps, and the Kappa index according to French standard NFT 12018 are determined on the raw pulps.
The pH and the consumption of caustic soda are determined on the liquors after cooking.
A comparative test with 0.5% of anthraquinone was carried out under the same operational conditions as in Example 9.

[2] = Mechanical characteristics of raw pulps from caustic soda cooking, refined at 40° SR; conditions: for Index of rupture / Index of tearing / Length of rupture / Resistance to bending: 0.5% adjuvant, 40° SR
Description: (§1) The raw pulps for reference and those obtained with 0.5% of adjuvant in the cooking are refined in a Jokro mill.
(§2) Sheets for physical tests are produced on a Rapid Kothen mold. Their weight per m^2 is about 70 g.
(§3) The following mechanical characteristics are determined:
(§4) Length of break: AFNOR NFQ 03004 standard
(§5) Index of splitting or cracking: AFNOR NFQ 03014 standard
(§6) Tearing index: AFNOR NFQ 03011 standard
(§7) Resistance to bending or folding: AFNOR NFQ 03001 standard
The mechanical characteristics of the raw or unwashed pulps obtained after heating with caustic soda in the presence of 0.5% of adjuvant are compared with those of a conventional Kraft pulp (Table IV).
Mechanical characteristics of raw pulps refined at
40° SR caustic soda cooking with 0.5% of adjuvant

[3] = Kraft cooking (caustic soda-sulfuric liquor) with adjuvant
Description: Shavings from moorland maritime pine are subjected to cooking in an autoclave with a caustic soda-sulfuric liquor under the following conditions:
Proportion of active alkali: 22% by weight with respect to the dry vegetable material,
Sulfidity: 25% with respect to the active alkali,
Ratio liquor/vegetable material: 4
Temperature of heating: 170° C.
Time taken to arrive at the heating temperature: 90 min.,
Time of heating: 120 min.
Amount of adjuvant: 0-0.1%-0.5%-1% by weight with respect to the dry vegatable material.
After cooking, the same operations as those described in Example 9 are carried out on the pulps and the cooking liquors. […]

[4] = Mechanical characteristics of crude pulps from Kraft cooking, refined at 40° SR; conditions: for Index of rupture / Index of tearing / Length of rupture / Resistance to bending: 0.5% adjuvant, 40° SR
Description: as §1, §2, §3, §4, §5, §6, §7
After cooking, the same operations as those described in Example 9 are carried out on the pulps and the cooking liquors.
A comparative test with 0.5% of anthraquinone is effected under the same operational conditions as in Example 11. The mechanical characteristics of the pulps obtained are compared with those of a Kraft pulp for reference (Table VII).
Mechanical characteristics of the crude pulps refined at
40° SR Kraft cooking with 0.5% of adjuvant

Q: With `O=C1c2ccccc2C(=O)C2CCCCC12` (stereo not drawn) [6 HAD, 1,2,3,4,4a,9a-hexahydro-9,10-anthracene-dione] as the compound, how does the “effect on delignification” value [1] read?
A: Its value is “has the same effect as the anthraquinone”.

Q: What about the “% Caustic soda consumed/wood” value ([1]; 0.1% adjuvant) of the same compound?
A: The value was 16.9%.

Q: What about the Classified yield ([1]; 0.1% adjuvant) of the same compound?
A: Its Classified yield is 45.7%.

Q: What about the Crude yield ([1]; 0.1% adjuvant) of the same compound?
A: Its Crude yield is 46.2%.

Q: And the Kappa index ([1]; 0.1% adjuvant)?
A: Its Kappa index is 51.7.

Q: And the “% Caustic soda consumed/wood” value ([1]; 0.5% adjuvant)?
A: Its value is 17.9%.

Q: What about the Classified yield ([1]; 0.5% adjuvant) of the same compound?
A: The Classified yield was 45.5%.

Q: What about the Crude yield ([1]; 0.5% adjuvant) of the same compound?
A: The Crude yield was 45.8%.

Q: What about the Kappa index ([1]; 0.5% adjuvant) of the same compound?
A: Its Kappa index is 33.4.

Q: And the “% Caustic soda consumed/wood” value ([1]; 1% adjuvant)?
A: The value was 18.1%.

Q: What about the Classified yield ([1]; 1% adjuvant) of the same compound?
A: The Classified yield was 45.5%.

Q: What about the Crude yield ([1]; 1% adjuvant) of the same compound?
A: Its Crude yield is 45.7%.

Q: And the Kappa index ([1]; 1% adjuvant)?
A: The Kappa index was 28.0.

Q: What about the “effect on delignification” value ([1]; listed as 1,2,3,4,4a,9a-hdxahydro9,10-anthracene-dione) of the same compound?
A: Its value is “accelerates the delignification and makes it more selective”.

Q: What about the Index of rupture [2] of the same compound?
A: Its Index of rupture is 4.82.

Q: And the Index of tearing [2]?
A: Its Index of tearing is 922.

Q: And the Length of rupture [2]?
A: The Length of rupture was 7,030 m.

Q: What about the Resistance to bending [2] of the same compound?
A: The Resistance to bending was 1,846.

Q: What about the “quality / mechanical properties of pulps” value ([2]; compared with conventional Kraft pulp) of the same compound?
A: The value was “very near to the quality of the conventional Kraft pulp; also recorded: mechanical properties similar to those of Kraft pulps with a similar yield and Kappa indexes”.

Q: And the “effect on delignification, Kappa index and yield” value [3]?
A: The value was “enables the Kappa index of the pulps to be appreciably lowered without alteration of the mechanical properties; also recorded: With identical Kappa indexes, yields greater than those of the Kraft process referred to can be obtained; also recorded: increases the kinetics and the selectivity of the delignification; also recorded: decrease of the Kappa index of the pulps without reduction of the yield of the cooking”.

Q: And the “% Effective alkali consumed/wood” value ([3]; 0.1% adjuvant)?
A: Its value is 17.5%.

Q: What about the Classified yield ([3]; 0.1% adjuvant) of the same compound?
A: The Classified yield was 44.3%.

Q: What about the Crude yield ([3]; 0.1% adjuvant) of the same compound?
A: The Crude yield was 44.6%.

Q: And the Kappa index ([3]; 0.1% adjuvant)?
A: The Kappa index was 27.4.

Q: And the “% Effective alkali consumed/wood” value ([3]; 0.5% adjuvant)?
A: The value was 17.9%.

Q: And the Classified yield ([3]; 0.5% adjuvant)?
A: The Classified yield was 44.5%.

Q: And the Crude yield ([3]; 0.5% adjuvant)?
A: The Crude yield was 44.8%.

Q: What about the Kappa index ([3]; 0.5% adjuvant) of the same compound?
A: The Kappa index was 24.2.

Q: What about the “% Effective alkali consumed/wood” value ([3]; 1% adjuvant) of the same compound?
A: Its value is 18.2%.

Q: And the Classified yield ([3]; 1% adjuvant)?
A: The Classified yield was 44.3%.

Q: And the Crude yield ([3]; 1% adjuvant)?
A: The Crude yield was 44.4%.

Q: What about the Kappa index ([3]; 1% adjuvant) of the same compound?
A: Its Kappa index is 22.0.

Q: What about the “mechanical characteristics / degradation of pulps” value [4] of the same compound?
A: The value was “more favorable than that of anthraquinone”.

Q: What about the Index of rupture ([4]; Kraft cooking) of the same compound?
A: The Index of rupture was 5.55.

Q: What about the Index of tearing ([4]; Kraft cooking) of the same compound?
A: The Index of tearing was 847.

Q: And the Length of rupture ([4]; Kraft cooking)?
A: Its Length of rupture is 7,000 m.

Q: What about the Resistance to bending ([4]; Kraft cooking) of the same compound?
A: Its Resistance to bending is 1,917.

Q: Which “% Caustic soda consumed/wood” value ([1]; 0.5% adjuvant) does the source give for `O=C1c2ccccc2C(=O)c2ccccc21` [Anthraquinone, anthraquinone, reference compound] here?
A: The value was 17.5%.

Q: And the Classified yield ([1]; 0.5% adjuvant)?
A: Its Classified yield is 46.2%.

Q: And the Crude yield ([1]; 0.5% adjuvant)?
A: The Crude yield was 46.8%.

Q: What about the Kappa index ([1]; 0.5% adjuvant) of the same compound?
A: The Kappa index was 32.2.

Q: And the Index of rupture [2]?
A: Its Index of rupture is 5.07.

Q: What about the Index of tearing [2] of the same compound?
A: The Index of tearing was 813.

Q: What about the Length of rupture [2] of the same compound?
A: Its Length of rupture is 7,230 m.

Q: What about the Resistance to bending [2] of the same compound?
A: The Resistance to bending was 945.

Q: And the “% Effective alkali consumed/wood” value ([3]; 0.5% adjuvant)?
A: Its value is 17.4%.

Q: What about the Classified yield ([3]; 0.5% adjuvant) of the same compound?
A: The Classified yield was 43.8%.

Q: And the Crude yield ([3]; 0.5% adjuvant)?
A: The Crude yield was 44%.

Q: What about the Kappa index ([3]; 0.5% adjuvant) of the same compound?
A: The Kappa index was 24.3.

Q: And the “mechanical characteristics / degradation of pulps” value ([4]; Kraft cooking)?
A: The value was “inferior mechanical characteristics; also recorded: a relatively large degradation is observed”.

Q: What about the Index of rupture ([4]; Kraft cooking) of the same compound?
A: Its Index of rupture is 4.48.

Q: What about the Index of tearing ([4]; Kraft cooking) of the same compound?
A: Its Index of tearing is 808.

Q: What about the Length of rupture ([4]; Kraft cooking) of the same compound?
A: Its Length of rupture is 5,850 m.

Q: And the Resistance to bending ([4]; Kraft cooking)?
A: Its Resistance to bending is 905.
